{"source": "patent US12338266B2", "about": "(GENETIC S.P.A., priority 2019, dated 2025)", "key": {"glucocorticoid receptor": {"biological_target": "T1, glucocorticoid receptor (Homo sapiens, UniProt P04150)", "T1 sequence (P04150 1-777)": "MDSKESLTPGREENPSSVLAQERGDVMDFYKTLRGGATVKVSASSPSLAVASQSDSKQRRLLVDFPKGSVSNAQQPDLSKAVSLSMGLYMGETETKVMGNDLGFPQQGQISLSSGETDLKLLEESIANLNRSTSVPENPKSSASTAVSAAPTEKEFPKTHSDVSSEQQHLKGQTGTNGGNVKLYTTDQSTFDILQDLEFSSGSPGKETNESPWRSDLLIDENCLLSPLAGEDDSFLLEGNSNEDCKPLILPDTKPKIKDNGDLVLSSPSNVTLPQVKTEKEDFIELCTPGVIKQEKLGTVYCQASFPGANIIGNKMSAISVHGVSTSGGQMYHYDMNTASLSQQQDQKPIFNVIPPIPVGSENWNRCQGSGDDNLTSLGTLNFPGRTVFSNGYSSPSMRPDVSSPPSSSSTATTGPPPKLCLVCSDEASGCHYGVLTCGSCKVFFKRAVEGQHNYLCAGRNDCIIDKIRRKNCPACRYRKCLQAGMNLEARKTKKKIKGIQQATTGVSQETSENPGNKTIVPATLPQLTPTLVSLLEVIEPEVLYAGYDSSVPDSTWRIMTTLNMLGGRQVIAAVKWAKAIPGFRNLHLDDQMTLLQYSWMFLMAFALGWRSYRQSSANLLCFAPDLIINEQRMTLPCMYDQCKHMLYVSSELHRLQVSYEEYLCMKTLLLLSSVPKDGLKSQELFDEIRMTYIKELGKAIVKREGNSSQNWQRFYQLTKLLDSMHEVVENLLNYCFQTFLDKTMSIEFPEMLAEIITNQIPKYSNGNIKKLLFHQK", "settings": "higher than the parent compound; cited from earlier work"}, "[1]": {"settings": "10 mg orally once daily at bedtime; cited from earlier work"}, "[2]": {"test_system": "mice with OVA-induced allergic asthma", "test": "Lung hyperreactivity / Penh by whole body plethysmography (Protocol-2)", "type": "in vivo, Balb/c mice", "settings": "for basal Penh measurement (non-challenged with methacholine): FIG. 9B", "experimental": "(§1) Male Balb/c SPF mice (26*2 g, 6 week-old) were purchased from the animal house facilities at the Faculty of Medicine (University of Sāo Paulo, Brazil). They were group-housed in a temperature-controlled room at 22° C. with a 12/12-hour light/dark cycle and allowed free access to food and water. The study is in agreement with the Ethical Principles for Animal Research established by the Brazilian College for Animal Experimentation (COBEA). According to the internal laboratory rules, euthanasia will be performed if severe distress related to the test agents developed during the experiment. Mice were sensitized with two subcutaneous injections of 0.2 ml of OVA/Al(OH)3, with an interval of 7 days (Sham animals received the Al(OH)3 suspension in PBS with no OVA). Chicken egg-white ovalbumin (OVA; grade V, cat. A5503, Sigma Chemical Co., St. Louis, Mo.) was dissolved in sterile phosphate buffered saline (PBS) solution (50 μg/ml) and Al(OH)3 was added (at 8 mg/ml). This mix was used to induce the allergic sensitization of the animals by subcutaneous injection. OVA was dissolved at 1% in sterile PBS solution and this solution was nebulized (as the immunological challenges). Seven days after the second sensitization (i.e., 3rd week), the animals were nebulized twice a week with the 1% OVA solution (Sham and untreated OVA groups were nebulized with PBS) during 20 minutes for the next 4 weeks. Thirty minutes before the challenges (OVA nebulization) and daily during the next 4 weeks, mice were intra-nasally treated (10 μl/animal as 5 μl/nostril) with the respective compounds/vehicle. […] Animals were killed at selected time points by overdose of enflurane and BAL and blood collected.\nAirway responsiveness in conscious, spontaneously breathing animals was measured at the end of the 6th week (i.e., after 4 weeks OVA challenges+treatments), 24 h after the last OVA/PBS challenge via whole body plethysmography (Buxco Europe Ltd, Winchester, UK). Experiments were carried out in a quiet room by an investigator who was unaware of the nature of treatments. Aerosolized saline (50 μl/mouse during 60 s) and then the muscarinic agonist metacholine (MCh) at increasing concentrations (3.12, 6.25, 12.5 and 25.0 mg/ml in PBS) was nebulized through an inlet of the main chamber for 3 min each to induce bronchoconstriction and readings were taken and averaged for 6 min following each nebulization. After 20 min. the baseline values usually returned at the end of this period. Enhanced pause (Penh) was measured as an indicator of bronchoconstriction and consequent increase of airway resistance as: Penh=[(expiration time/relaxation time)−1][…]."}, "[3]": {"test_system": "mice with OVA-induced allergic asthma", "test": "Total and differential leukocyte counts in BAL fluid (Protocol-2)", "type": "in vivo, Balb/c mice", "settings": "4 weeks; for BAL eosinophils (OVA-induced increase): 100 nmol/animal/day intranasal, FIG. 10", "experimental": "as §1\nAfter Penh evaluation, the mice were anesthetized with inhaled isofluorane (5% v/v in O2) and blood samples were collected from the descending abdominal aorta. The mice were then euthanized by exsanguination and bronchoalveolar lavage (BAL) was performed by exposing and cannulating the trachea with a polyethylene tube (1 mm outer diameter) connected to a syringe. The lungs were washed by flushing 300 μL of heparin-containing PBS solution (20 UI/mL). The retrieved BAL lavage aliquots were obtained and the same procedure was repeated four additional times. The samples were centrifuged (1000 g for 10 min) and the cell pellet was resuspended in 200 μL of PBS solution, Total cell counts were determined using a Neubauer chamber, and differential counting was carried out in cytospin (Fanem Mod 2400; Sāo Paulo, Brazil) preparations stained with May-Grünwald dye. Leukocytes were classified based on morphological criteria."}, "[4]": {"settings": "intranasal administration at recommended doses; cited from earlier work"}, "[5]": {"settings": "in vivo; cited from earlier work"}, "[6]": {"test_system": "mice with OVA-induced allergic asthma", "test": "Plasma IgE levels by ELISA in OVA-sensitized mice (Protocol-1)", "type": "in vivo, Balb/c mice", "settings": "1 mg/kg i.p.; FIG. 6C, 7C", "experimental": "Balb/c mice (8-9 weeks old, Charles River, Calco, Italy) were housed in the animal care facility at the Department of Pharmacy of the University of Naples. Italy in a controlled environment (temperature 21±2° C. and humidity 60±10%) and provided with standard rodent chow and water. All animals were allowed to acclimate for four days prior to experiments and were subjected to 12 h light-12 h dark schedule. Each mouse was assigned an identity number and randomtzed to different groups so that all experiments were carried out in a blinded manner. The experimental procedures were approved by the Italian Ministry according to International and National law and policies (EU Directive 2010/63/EU and Italian DL 26/2014 for animal experiments, ARRIVE guidelines and the Basel declaration including the 3R concept). Animal studies are reported in compliance with the ARRIVE guidelines. Balb/c mice is the most widely mouse strain used to study asthma-like features in vivo and to investigate the undedying molecular and cellular mechanisms of allergen sensitization. Mice were treated subcutaneously (s.c.) with 0.4 mL (100 μg) of ovalbumin (OVA) complexed with alum (13 mg mL^−1) (OVA group) at day 0 and 7. Chicken egg-white ovalbumin (OVA: grade V. cat. A5503, Sigma Chemical Co., St. Louis, MO) was dissolved in sterile phosphate buffered saline (PBS) solution (250 μg/1 ml) and Al(OH)3 was added (at 13 mg/ml). This mix was used to induce the allergic sensitization of the animals by subcutaneous injection. OVA was dissolved at 3% in sterile PBS solution and this solution was nebulized (as the immunological challenges). At day 21 mice were exposed to OVA challenge for three days and then sacrificed. This experimental procedure induces in the mice an increase in plasma IgE levels and this effect is by itself sufficient to induce a significant increase in bronchial hyper-responsiveness and pulmonary inflammation, typical hallmarks of asthma. A group of animals was treated s.c. with saline (vehicle group). […] Animals were killed at selected time points by overdose of enflurane and bronchi and blood collected.\nBlood was collected by intracardiac puncture using citrate as anticoagulant. Plasma was obtained by centrifugation at 800×g at 4′C for 10 minutes and immediately frozen at −80° C. Total IgE levels were measured by means of ELISA using matched antibody pairs (BD Biosciences Pharmingen San Jose, Calif.)."}}, "note": "“Also recorded” adds a separate entry of the source.", "data": [{"smiles": "C[C@]12C=CC(=O)C=C1CC[C@@H]1[C@@H]2[C@@H](O)C[C@@]2(C)[C@H]1C[C@H]1O[C@@H](C3CCCCC3)O[C@]12C(=O)CO", "note": "[Des-ciclesonide, C21-desisobutyryl-ciclesonide]", "values": [{"measurement": "affinity for the glucocorticoid receptor relative to the parent compound (ciclesonide)", "setting": "glucocorticoid receptor", "result": 120, "unit": "times"}]}, {"smiles": "CC(C)(O)c1ccccc1CC[C@@H](SCC1(CC(=O)[O-])CC1)c1cccc(/C=C/c2ccc3ccc(Cl)cc3n2)c1.[Na+]", "note": "[Montelukast sodium, (R,E)-2-(1-((1-(3-(2-(7-chloroquinolin-2-yl)vinyl)phenyl)-3-(2-(2-hydroxypropan-2-yl)phenyl)propylthio)-methyl)cyclopropyl)acetic acid monosodium salt]", "values": [{"measurement": "variables of asthma control (FEV1, daytime and night time symptom scores, as-needed β-agonist use)", "setting": "[1]", "result": "improvement in variables of asthma control"}]}, {"smiles": "CC(C)C(=O)OCC(=O)[C@@]12O[C@H](C3CCCCC3)O[C@@H]1C[C@H]1[C@@H]3CCC4=CC(=O)C=C[C@]4(C)[C@H]3[C@@H](O)C[C@@]12C", "note": "[ciclesonide, (11β,16α)-16,17-[[(R)-cyclohexylmethylene]bis(oxy)]-11-hydroxy-21-(2-methyl-1-oxopropoxy)pregna-1,4-diene-3,20-dione]", "values": [{"measurement": "airway responsiveness, Penh (basal, methacholine Emax and AUC)", "setting": "[2]; 100 nmol/day/animal intranasal, daily for 4 weeks, FIG. 8A-D", "result": "Significant reduction of this response; also recorded: significantly reduced"}, {"measurement": "BAL eosinophils (OVA-induced increase)", "setting": "[3]", "result": "significantly reduced"}, {"measurement": "BAL eosinophils (OVA-induced increase)", "setting": "[3]; listed as Ciclesonide", "result": "significantly reduced this increase"}, {"measurement": "serum concentrations of ciclesonide", "setting": "[4]", "result": "negligible serum concentrations"}, {"measurement": "cortisol suppression", "setting": "[5]", "result": "comparable with placebo"}, {"measurement": "allergen induced plasma IgE increase", "setting": "[6]", "result": "significantly inhibited allergen induced IgE increase"}]}, {"smiles": "CC(C)(O)c1ccccc1CC[C@@H](SCC1(CC(=O)O)CC1)c1cccc(/C=C/c2ccc3ccc(Cl)cc3n2)c1", "note": "[montelukast, (R,E)-2-(1-((1-(3-(2-(7-chloroquinolin-2-yl)vinyl)phenyl)-3-(2-(2-hydroxypropan-2-yl)phenyl)propylthio)-methyl)cyclopropyl)acetic acid]", "values": [{"measurement": "basal Penh measurement (non-challenged with methacholine)", "setting": "[2]; 10 nmol/animal/day intranasal, daily for 4 weeks", "result": "significantly reduced the basal Penh measurement"}, {"measurement": "basal Penh measurement (non-challenged with methacholine)", "setting": "[2]; 10 nmol/animal/day intranasal, daily for 4 weeks, listed as Montelukast", "result": "slightly decrease the basal (non-challenged with methacholine) response"}, {"measurement": "Penh parameters following methacholine challenge (Emax, AUC)", "setting": "[2]; 10 nmol/animal/day intranasal, FIG. 9C-D", "result": "did not affect the parameters measured following methacholine challenge"}, {"measurement": "direct effects on lung function", "setting": "[2]; 10 nmol/day/animal intranasal", "result": "negligible direct effects on lung function"}, {"measurement": "BAL eosinophils / eosinophil recruitment to the lungs", "setting": "[3]; 10 nmol/animal/day intranasal, FIG. 11", "result": "significantly reduced; also recorded: significant inhibitory effects on eosinophil recruitment to the lungs"}, {"measurement": "allergen induced plasma IgE increase", "setting": "[6]", "result": "did not affect IgE"}]}]}
